# Results reported in patent publication US9493444B2 (Merck Patent GmbH, priority 2012, dated 2016).
# Tested on: Wnt pathway (TCF-dependent transcription in HEK293 luciferase reporter cell line with ER-DSH construct)
# Assay: Cellular assay for Wnt pathway activity (luciferase reporter)
# Type: cell-based
# Conditions: Homo sapiens; Wnt pathway inhibition, HEK293 luciferase reporter cells (ER-DSH, TCF promoter), 24 hours incubation, estrogen-induced
# Procedure: 1. Cellular Assay for Wnt Pathway Activity
# Compounds were tested for their Wnt pathway inhibitory activities using a luciferase reporter cell based assay. A HEK293 luciferase reporter cell line was used which contained an Estrogen Receptor-Dishevelled (ER-DSH) construct and a T-Cell Factor (TCF) dependent gene promoter luciferase construct.
# Compounds, in concentrations from 30 μM down to 1 nM, were incubated for 24 hours on the cells, which were induced for TCF-dependent transcription by the addition of estrogen (10). Luciferase activities were determined using the ONE GLO Luciferase Assay System (Promega) and the ENVISION microplate reader (Perkin Elmer). For analysis, the obtained data were normalized against the untreated vehicle control and fitted for determination of the IC50 values using the Assay Explorer software (Accelrys).
row,SMILES,IC50
1,"CCNC(=O)N(C)CCN(C)c1cncc(Oc2ccc(OC)cc2)n1 [Compound 69, 3-Ethyl-1-(2-{[6-(4-methoxy-phenoxy)-pyrazin-2-yl]-methyl-amino}-ethyl)-1-methyl-urea]",1 to 10 µM
2,"CC(=O)N(C)CCN(C)c1cncc(Oc2ccc(-c3cncc4[nH]ccc34)cc2)n1 [Compound 237, N-Methyl-N-[2-(methyl-{6-[4-(1H-pyrrolo[2,3-c]pyridin-4-yl)-phenoxy]-pyrazin-2-yl}-amino)-ethyl]-acetamide]",0.2 to 1 µM
3,"CC(=O)N(C)CCN(C)c1cncc(Oc2ccc(-c3ccnc(N)n3)cc2)n1 [Compound 202, N-[2-({6-[4-(2-Amino-pyrimidin-4-yl)-phenoxy]-pyrazin-2-yl}-methyl-amino)-ethyl]-N-methyl-acetamide]",< 0.2 µM
4,"CC(=O)N(C)CCN(C)c1cncc(Oc2ccc(-c3ccc(C)cn3)cc2)c1 [Compound 320, N-Methyl-N-[2-(methyl-{5-[4-(5-methyl-pyridin-2-yl)-phenoxy]-pyridin-3-yl}-amino)-ethyl]-acetamide]",0.2 to 1 µM
5,"COc1ccc(-c2ccc(Oc3cncc(N(C)CCN(C)C(C)=O)n3)cc2)cn1 [Compound 184, N-[2-({6-[4-(6-Methoxy-pyridin-3-yl)-phenoxy]-pyrazin-2-yl}-methyl-amino)-ethyl]-N-methyl-acetamide]",< 0.2 µM
6,"COc1ccc(Oc2cncc(N(C)CCN(C)C(C)=O)n2)cc1OC [Compound 140, N-(2-{[6-(3,4-Dimethoxy-phenoxy)-pyrazin-2-yl]-methyl-amino}-ethyl)-N-methyl-acetamide]",1 to 10 µM
7,"CC(=O)N(C)CCN(C)c1cncc(Oc2ccc(-c3cc(C(N)=O)ccn3)cc2)n1 [Compound 192, 2-[4-(6-{[2-(Acetyl-methyl-amino)-ethyl]-methyl-amino}-pyrazin-2-yloxy)-phenyl]-isonico-tinamide]",0.2 to 1 µM
8,"CCc1ccnc(-c2ccc(Oc3cncc(N(C)CCN(C)C(C)=O)n3)cc2)c1 [Compound 167, N-[2-({6-[4-(4-Ethyl-pyridin-2-yl)-phenoxy]-pyrazin-2-yl}-methyl-amino)-ethyl]-N-methyl-acetamide]",0.2 to 1 µM
9,"CC(=O)N(C)CCN(C)c1cncc(Oc2ccc3[nH]c(=O)oc3c2)n1 [Compound 154, N-Methyl-N-(2-{methyl-[6-(2-oxo-2,3-dihydro-benzooxazol-6-yloxy)-pyrazin-2-yl]-amino}-ethyl)-acetamide]",1 to 10 µM
10,"COc1ccc(Oc2cncc(N(C)CCNC(=O)OC(C)(C)C)n2)cc1 [Compound 54, (2-{[6-(4-Methoxy-phenoxy)-pyrazin-2-yl]-methyl-amino}-ethyl)-carbamic acid tert-butyl ester]",1 to 10 µM
11,"CC(=O)N(C)CCN(C)c1cncc(Oc2cnn(-c3cccc(C(F)(F)F)c3)c2)n1 [Compound 222, N-Methyl-N-[2-(methyl-{6-[1-(3-trifluoromethyl-phenyl)-1H-pyrazol-4-yloxy]-pyrazin-2-yl}-amino)-ethyl]-acetamide]",1 to 10 µM
12,"COc1ccc(Oc2cncc(N(C)CCCN(C)C(=O)C(F)(F)F)n2)cc1 [Compound 81, 2,2,2-Trifluoro-N-(3-{[6-(4-methoxy-phenoxy)-pyrazin-2-yl]-methyl-amino}-propyl)-N-methyl-acetamide]",1 to 10 µM
13,"CCC(=O)N(C)CCN(C)c1cncc(Oc2ccc(F)cc2)n1 [Compound 34, N-(2-{[6-(4-Fluoro-phenoxy)pyrazin-2-yl]-methyl-amino}-ethyl)-N-methyl-propionamide]",1 to 10 µM
14,"O=C1NCCN1CCNc1cncc(Oc2ccc(F)cc2)n1 [Compound 278, 1-{2-[6-(4-Fluoro-phenoxy)-pyrazin-2-ylamino]-ethyl}-imidazolidin-2-one]",0.2 to 1 µM
15,"CN(CCN(C)c1cncc(Oc2ccc3ncccc3c2)n1)C(=O)C(F)(F)F [Compound 74, 2,2,2-Trifluoro-N-methyl-N-(2-{methyl-[6-(quinolin-6-yloxy)-pyrazin-2-yl]-amino}-ethyl)-acetamide]",1 to 10 µM
16,"COc1ccc(Oc2cncc(N(C)CCN(C)C(=O)Cc3cccs3)n2)cc1 [Compound 33, N-(2-{[6-(4-Methoxy-phenoxy)-pyrazin-2-yl]-methyl-amino}-ethyl)-N-methyl-2-thiophen-2-yl-acetamide]",1 to 10 µM
17,"CC(=O)N(C)CCN(C)c1cncc(Oc2cnc3[nH]ccc3c2)n1 [Compound 250, N-Methyl-N-(2-{methyl-[6-(1H-pyrrolo[2,3-b]pyridin-5-yloxy)-pyrazin-2-yl]-amino}-ethyl)-acetamide]",1 to 10 µM
18,"CCN(CCNc1cncc(Oc2ccc(F)cc2)n1)C(C)=O [Compound 72, N-Ethyl-N-{2-[6-(4-fluoro-phenoxy)-pyrazin-2-ylamino]-ethyl}-acetamide]",1 to 10 µM
19,"CC(=O)N(C)CCN(C)c1cncc(Oc2ccc(F)cc2F)n1 [Compound 105, N-(2-{[6-(2,4-Difluoro-phenoxy)-pyrazin-2-yl]-methyl-amino}-ethyl)-N-methyl-acetamide]",0.2 to 1 µM
20,"CC(=O)N(C)CCN(C)c1cncc(Oc2ccc(-c3ccnc(F)c3)cc2)n1 [Compound 210, N-[2-({6-[4-(2-Fluoro-pyridin-4-yl)-phenoxy]-pyrazin-2-yl}-methyl-amino)-ethyl]-N-methyl-acetamide]",< 0.2 µM
21,"CC(=O)N(C)CCN(C)c1cncc(Oc2ccc3cccnc3c2)n1 [Compound 55, N-Methyl-N-(2-{methyl-[6-(quinolin-7-yloxy)-pyrazin-2-yl]-amino}-ethyl)-acetamide]",1 to 10 µM
22,"CC(=O)N(C)CCN(C)c1cncc(Oc2ccc(-c3cccc(C(N)=O)n3)cc2)n1 [Compound 170, 6-[4-(6-{[2-(Acetyl-methyl-amino)-ethyl]-methyl-amino}-pyrazin-2-yloxy)-phenyl]-pyridine-2-carboxylic acid amide]",< 0.2 µM
23,CC(=O)N(C)CCN(C)c1cncc(Oc2ccc(-c3ccc(CN)nc3)cc2)n1 [Compound 309],< 0.2 µM
24,"CC(=O)N(C)CCN(C)c1cncc(Oc2ccc(/C=C/c3ccccn3)cc2)n1 [Compound 145, N-Methyl-N-[2-(methyl-{6-[4-((E)-2-pyridin-2-yl-vinyl)-phenoxy]-pyrazin-2-yl}-amino)-ethyl]-acetamide]",< 0.2 µM
25,"CC(=O)N1CCCC(CNc2cncc(Oc3ccc(F)cc3)n2)C1 (centres unmarked) [Compound 39, 1-(3-{[6-(4-Fluoro-phenoxy)-pyrazin-2-ylamino]-methyl}-piperidin-1-yl)-ethanone]",1 to 10 µM
26,"COc1ccc(Oc2cncc(N(C)CCN(C)S(=O)(=O)c3ccc(F)cc3F)n2)cc1 [Compound 60, 2,4-Difluoro-N-(2-{[6-(4-methoxy-phenoxy)-pyrazin-2-yl]-methyl-amino}-ethyl)-N-methyl-benzene-sulfonamide]",1 to 10 µM
27,"CC(=O)N(C)CCNc1cncc(Oc2ccc(-c3cccnc3)c(F)c2F)n1 [Compound 302, N-{2-[6-(2,3-Difluoro-4-pyridin-3-yl-phenoxy)-pyrazin-2-ylamino]-ethyl}-N-methyl-acetamide]",1 to 10 µM
28,"Cc1ccc(-c2ccc(Oc3cncc(NCCN4CCCC4=O)n3)cc2)nc1 [Compound 196, 1-(2-{6-[4-(5-Methyl-pyridin-2-yl)-phenoxy]-pyrazin-2-ylamino}-ethyl)-pyrrolidin-2-one]",< 0.2 µM
29,"CC(=O)N(C)CCCc1cncc(Oc2ccc(-c3ccncc3C#N)cc2)c1 [Compound 321, N-(3-{5-[4-(3-Cyano-pyridin-4-yl)-phenoxy]-pyridin-3-yl}-propyl)-N-methyl-acetamide]",< 0.2 µM
